The text below walks through data of ChEMBL document CHEMBL4354883, “Design, Synthesis, and Biological Evaluation of HSP90 Inhibitor-SN38 Conjugates for Targeted Drug Accumulation” (J Med Chem, 2020).

Active and inactive are the calls of the source. The calls are words filed in the database; no cut-off is given here.

For data set [1], the target named is T1, DNA topoisomerase 1 (Homo sapiens) (UniProt P11387).
T1 sequence (whole entry): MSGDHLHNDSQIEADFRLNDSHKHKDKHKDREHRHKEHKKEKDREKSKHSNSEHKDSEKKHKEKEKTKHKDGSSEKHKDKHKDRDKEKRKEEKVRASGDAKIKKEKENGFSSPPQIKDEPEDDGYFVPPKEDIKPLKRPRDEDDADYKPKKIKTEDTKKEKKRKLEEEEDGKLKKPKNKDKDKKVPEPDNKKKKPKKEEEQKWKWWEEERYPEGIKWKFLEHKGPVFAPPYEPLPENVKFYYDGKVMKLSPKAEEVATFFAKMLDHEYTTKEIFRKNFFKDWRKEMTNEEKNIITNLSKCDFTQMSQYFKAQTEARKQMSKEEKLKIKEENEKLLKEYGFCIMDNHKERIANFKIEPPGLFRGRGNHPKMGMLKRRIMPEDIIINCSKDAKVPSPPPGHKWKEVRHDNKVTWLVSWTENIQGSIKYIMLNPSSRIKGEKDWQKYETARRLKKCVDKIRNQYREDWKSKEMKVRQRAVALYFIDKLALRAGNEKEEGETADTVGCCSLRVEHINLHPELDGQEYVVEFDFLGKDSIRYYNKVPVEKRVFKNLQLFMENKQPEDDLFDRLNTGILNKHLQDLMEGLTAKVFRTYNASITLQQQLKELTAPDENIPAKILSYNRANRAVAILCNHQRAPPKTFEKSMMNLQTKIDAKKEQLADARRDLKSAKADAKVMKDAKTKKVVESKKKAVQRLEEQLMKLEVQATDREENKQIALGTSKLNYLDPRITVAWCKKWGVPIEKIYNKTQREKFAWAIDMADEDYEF
Kind of data set: Inhibition of topoisomerase 1 in human A549 cells assessed as increase in phosphorylated KAP1 expression at 0.2 to 5 uM after 24 hrs by Western blot analysis. Format: cell-based.

Data set [2] addresses T2, Heat shock protein HSP90 (Homo sapiens, UniProt P07900+P08238). Kind of data set: Inhibition of HSP90 in human A549 cells assessed as downregulation of AKT protein expression after 24 hrs by Western blot analysis. Format: cell-based.
The nature of data set [3]: Drug uptake in human HL7702 cells at 5 uM after 6 hrs in presence of HSP90 ATPase competitive inhibitor, NVP-AUY922 by confocal laser scanning microscopic analysis. The data set is classed as ADME, cell-based. The note with it: l02, 6 h.
Data set [4] deals with CAPAN-1. Kind of data set: Antitumor activity against human Capan1 cells xenografted in mouse assessed as reduction in Ki67 expression at 50 mg/kg, iv for every 2 days measured at 2 hrs post last dose by Ki67 staining based immunohistochemical analysis. The data set is classed as functional, organism-based. On the technique in general: In xenograft studies the graft and the host belong to different species.

Data set [5] has as its target T1, DNA topoisomerase 1 (Homo sapiens). Kind of data set: Inhibition of topoisomerase 1 in human A549 cells assessed as increase in phosphorylated KAP1 expression after 24 hrs by Western blot analysis. Format: cell-based.
Data set [6] is described as follows: Toxicity in mouse xenografted with human Capan1 cells assessed as increase in body weight at 50 mg/kg, iv for every 2 days. Format: organism-based. The following applies: in vivo, 48 h.
Data set [7] is described as follows: Drug uptake in tumor of mouse xenografted with human HCT116 cells at 50 mg/kg, iv administered as single dose measured up to 72 hrs by LC-MS/MS analysis. The following applies: in vivo. The data set is classed as ADME, organism-based, Neoplasm.
A short description of data set [8]: Drug uptake in human HL7702 cells in PBS solution at 5 uM after 6 hrs by confocal laser scanning microscopic analysis. The note with it: l02, 6 h. The data set is classed as ADME, cell-based.
Data set [9] has as its target T2, Heat shock protein HSP90. Kind of data set: Inhibition of HSP90 in human A549 cells assessed as upregulation of HSP70 expression at 0.008 to 1 uM after 24 hrs by Western blot analysis. The data set is classed as cell-based. A general note: Immunoblotting shows a protein as a band on a membrane.
Data set [10] in a line: Drug uptake in mouse plasma xenografted with human Capan1 cells at 50 mg/kg, iv after 30 mins by LC-MS/MS analysis. The data set is classed as ADME, organism-based. The note with it: in vivo, 0.5 h.
A short description of data set [11]: Drug uptake in mouse plasma xenografted with human HCT116 cells assessed as increase in drug level with longer half life at 50 mg/kg, iv administered as single dose and measured after 30 mins to 72 hrs by LC-MS/MS analysis. The following applies: in vivo. Format: ADME, organism-based.
The nature of data set [12]: Stability of compound in PBS buffer assessed as drug degradation at 50 uM at pH 7.4 measured after 12 hrs by HPLC analysis. The data set is classed as physicochemical. The following applies: read-out: Drug degradation.
Data set [13] is described as follows: Toxicity in lung of mouse xenografted with human Capan1 cells assessed as pathological changes at 50 mg/kg, iv for every 2 days measured at 2 hrs post-last dose by H and E staining based analysis. The data set is classed as organism-based. The note with it: in vivo.

In the case of `CCc1c2c(nc3ccc(OC(=O)N4CCC(NC(=O)c5noc(-c6cc(C(C)C)c(O)cc6O)c5-c5ccc(CN6CCOCC6)cc5)CC4)cc13)-c1cc3c(c(=O)n1C2)COC(=O)[C@]3(O)CC`, in [1], the inhibition entry is “inactive”. Moreover, in [2], the inhibition entry is “Dose-dependent effect”.
For the compound `CCc1c2c(nc3ccc(O)cc13)-c1cc3c(c(=O)n1C2)COC(=O)[C@@]3(CC)OC(=O)CNC(=O)c1noc(-c2cc(C(C)C)c(O)cc2O)c1-c1ccc(CN2CCOCC2)cc1`, the Drug uptake entry is listed as “Not Active” in data set [3]; “Active” in [7]; “Not Active” in [8]; “Active” in data set [10]; “Active” in data set [11]. Moreover, in data set [4], the result was Active. In addition, in [5], the inhibition entry was “Dose-dependent effect”. Moreover, the Activity in [6] is 10%; in data set [13] it was “Non-Toxic”. The inhibition result in [9] is “inactive”. In addition, the degraded at 12 h, 50 µM in data set [12] is 75%.
